The results in this text go back to patent US20240018211A1, “EXOSOME COMPRISING OVEREXPRESSED FC RECEPTOR OR PORTION THEREOF, AND METHOD FOR PREPARING SAME” (EXOCOBIO INC, priority 2021, published 2024).

In this test the test system is MDA-MB-231 human breast cancer cell line. As to conditions: MDA-MB-231, 10,000 cells/well; same amount of doxorubicin; exosomes 2.56×10^11 particles/mL; FIG. 11.

As for `COc1cccc2c1C(=O)c1c(O)c3c(c(O)c1C2=O)C[C@@](O)(C(=O)CO)C[C@@H]3O[C@H]1C[C@H](N)[C@H](O)[C@H](C)O1` [doxorubicin], the “growth of the breast cancer cells” value was “inhibited the growth of the breast cancer cells”.
